Reference: patent US9062284B2, “Uses and detection of herbicide resistance genes for resistance to aryloxyalkanoate herbicides” (Dow ArgoSciences LLC, priority 2007, dated 2015)
Where two headings read alike, the source gives them in different places.

Assays:
AAD-13 (v2) = target: T1, AAD-13 (v2) (Sphingobium herbicidovorans, UniProt Q700X4); format: biochemical
T1 construct: His tag (C); made in house; host or cells: E. coli BL-21, pET-26b(+)
Text: In order to test a broad range of substrates, the production of succinate from the breakdown of α-ketoglutarate was detected spectrophotometricly using a protocol based on the method of Luo et. al. (2006) (Anal. Biochem. 353: 69-74). As depicted in FIG. 3, the concomitant breakdown of α-ketoglutarate and the substrate of interest via AAD-13, results in the production of succinate. Succinate is further modified to succinyl-CoA by succinyl-CoA synthetase which consumes ATP and produces ADP. ADP is then consumed by the commonly employed pyruvate kinase/lactate dehydrogenase enzymatic coupling system (Sigma P0294). The resulting conversion of NADH to NAD is monitored spectrophotometrically at 340 nm.
Identification of AAD-13 (v2) substrates in vitro was based on enzymatic activity detected during continuous spectrophotometric monitoring of a 0.2 mL reaction volume in a 96 well microtiter plate. Reaction conditions were as follows: 100 mM MOPS pH 7.0, 0.4 mM NADH, 0.4 mM ATP, 0.4 mM CoA, 1 mM PEP, 10 mM MgCl2, 0.1 mM […] (solubilized in HCl), and 0.1 mM ascorbate, 1 mM α-ketoglutarate and sufficient AAD-13 (v2) to produce an observable rate in the presence of 2,4-D. Coupling enzymes (SCS/PK/LDH) were adjusted by batch to ensure adequate coupling, and potential substrates were generally assayed at 1 mM. Alterations in substrate concentrations were made as needed to adjust for solubility. Reactions were initiated by either the addition of AAD-13 (v2) or potential substrate. The rate of substrate independent conversion of α-ketoglutarate to succinate by AAD was monitored under the above assay conditions and subtracted from the observed reaction rates. […] Additionally, propionate compounds were checked for pyruvate contamination by spectrophotometrically monitoring the consumption of NADH in the presence of compound and PK/LDH.
Reaction rates are reported as a percentage of the 2,4-D reaction rate obtained in the same sample set. […] It should be noted that faster rates can be more difficult to accurately compare depending on the percentage of available substrate consumed. […] As a result, highly efficient substrates will be properly grouped when compared to low efficiency substrates. Within the grouping of highly efficient substrates however, compounds may not be quantitatively separated by a screen using single rates of substrate and AAD.

[1] = system: AAD-13 (v1) transformed T1 Arabidopsis; assay: Postemergence herbicide response of AAD-13 (v1) T1 Arabidopsis; format: in vivo, Arabidopsis thaliana; conditions: 2,240 g ae/ha 2,4-D
Description: Seven days after planting (DAP) and again 11 DAP, T1 plants (cotyledon and 2-4-lf stage, respectively) were sprayed with a 0.2% solution of Liberty herbicide (200 g ai/L glufosinate, Bayer Crop Sciences, Kansas City, Mo.) at a spray volume of 10 ml/tray (703 L/ha) using a DeVilbiss compressed air spray tip to deliver an effective rate of 280 g ai/ha glufosinate per application. Survivors (plants actively growing) were identified 4-7 days after the final spraying and transplanted individually into 3-inch pots prepared with potting media (Metro Mix 360). Transplanted plants were covered with humidity domes for 3-4 days and placed in a 22° C. growth chamber as before or moved to directly to the greenhouse. Domes were subsequently removed and plants reared in the greenhouse (22±5° C., 50±30% RH, 14 h light:10 dark, minimum 500 μE/m^2s^1 natural+supplemental light) at least 1 day prior to testing for the ability of AAD-13 (v1) to provide phenoxy auxin herbicide resistance.
T1 plants were then randomly assigned to various rates of 2,4-D. For Arabidopsis, 50 g ae/ha 2,4-D is an effective dose to distinguish sensitive plants from ones with meaningful levels of resistance. Elevated rates were also applied to determine relative levels of resistance (280, 560, 1120, or 2240 g ae/ha). Tables 11 and 12 show comparisons drawn to an aryloxyalkanoate herbicide resistance gene (AAD-12 (v1)) previously described in PCT/US2006/042133.
All auxin herbicide applications were made using the DeVilbiss sprayer as described above to apply 703 L/ha spray volume (0.4 ml solution/3-inch pot) or applied by track sprayer in a 187 L/ha spray volume. 2,4-D used was either technical grade (Sigma, St. Louis, Mo.) dissolved in DMSO and diluted in water (<1% DMSO final concentration) or the commercial dimethylamine salt formulation (456 g ae/L, NuFarm, St Joseph, Mo.). Dichlorprop used was commercial grade formulated as potassium salt of R-dichlorprop (600 g ai/L, AH Marks). As herbicide rates increased beyond 800 g ae/ha, the pH of the spray solution became exceedingly acidic, burning the leaves of young, tender Arabidopsis plants and complicating evaluation of the primary effects of the herbicides.
The first Arabidopsis transformations were conducted using AAD-13 (v1) (plant optimized gene). T1 transformants were first selected from the background of untransformed seed using a glufosinate selection scheme. Over 160,000 T1 seed were screened and 238 glufosinate resistant plants were identified (PAT gene), equating to a transformation/selection frequency of 0.15% which lies in the normal range of selection frequency of constructs where PAT+Liberty are used for selection. T1 plants selected above were subsequently transplanted to individual pots and sprayed with various rates of commercial aryloxyalkanoate herbicides. Table 11 compares the response of AAD-13 (v1) and control genes to impart 2,4-D resistance to Arabidopsis T1 transformants. Response is presented in terms of % visual injury 2 WAT. […] An arithmetic mean and standard deviation is presented for each treatment. The range in individual response is also indicated in the last column for each rate and transformation. PAT/Cry1F-transformed Arabidopsis served as an auxin-sensitive transformed control. The AAD-13 (v1) gene imparted herbicide resistance to individual T1 Arabidopsis plants. Within a given treatment, the level of plant response varied greatly and can be attributed to the fact each plant represents an independent transformation event. Of important note, at each 2,4-D rate tested, there were individuals that were unaffected while some were severely affected. […] At high rates the spray solution becomes highly acidic unless buffered therefore some of the injury may be attributed to the acidity of the spray solution. Arabidopsis grown mostly in the growth chamber has a very thin cuticle and severe burning effects can complicate testing at these elevated rates. […]

[2] = system: AAD-2 (v1) transformed T1 Arabidopsis; conditions: 200 g ae/ha 2,4-D; see PCT/US2005/014737; cited from earlier work
AAD-13 = target: T2, AAD-13 (Sphingobium herbicidovorans, UniProt Q700X4); conditions: CNPP as substrate, pH 6.75
T2 sequence (Q700X4 with tags, fused parts or gaps): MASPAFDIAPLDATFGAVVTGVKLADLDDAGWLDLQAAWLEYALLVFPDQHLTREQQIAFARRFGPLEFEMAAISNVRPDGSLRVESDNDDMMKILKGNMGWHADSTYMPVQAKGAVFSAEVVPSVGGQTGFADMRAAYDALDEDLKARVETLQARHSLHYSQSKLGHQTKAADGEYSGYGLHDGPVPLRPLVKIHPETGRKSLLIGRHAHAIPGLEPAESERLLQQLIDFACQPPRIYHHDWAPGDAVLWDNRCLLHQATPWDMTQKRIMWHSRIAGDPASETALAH
Description: A convenient assay of AAD-13 was devised using 2-(2-chloro,4-nitrophenoxy)propionate (CNPP) as substrate. Cleavage of CNPP by AAD-13 will release 2-chloro,4-nitrophenol. This phenol has a bright yellow absorbance at 410 nm at pH 7 enabling the reaction to be followed continuously or by endpoint analysis. […] Microplate-based spectrophotometric assays were performed in a total volume of 0.2 ml 20 mM MOPS pH 6.75 containing 200 μM NH4FeSO4, 200 μM sodium ascorbate, 1 mM α-ketoglutarate, the appropriate amount of CNPP (added from a 10 mM stock made up in DMSO), and enzyme. Assays are initiated by addition of CNPP, enzyme, or α-ketoglutarate at time zero and the increase in absorbance followed for 10 min at 410 nm in a microplate reader. The first 2 min of the reaction will be used to determine initial rates.

[3] = substrate 1 mM, rate as percentage of 2,4-D rate in same sample set, propionate rates divided by two
[4] = substrate 0.5 mM (asterisk), rate as percentage of 2,4-D rate

SMILES | % of 24D activity (AAD-13 (v2); [3]) | also measured
O=C(O)COc1ccc(Cl)cc1Cl [2,4-D, 2,4-dichlorophenoxyacetic acid] | 100% | population injury average [1]: about 15%; overall population injury [2]: about 83%
Nc1c(Cl)ccc(OCC(=O)O)c1Cl [3-amino 24D] | 151% | 
O=C(O)CCCOc1ccc(Cl)cc1Cl [24DB] | 2% | 
CC(Oc1ccc([N+](=O)[O-])cc1Cl)C(=O)O (centres unmarked) [CNPP] |  | Km (AAD-13): 31 ± 5.5 µM; kcat (AAD-13): 16.2 ± 0.79 min⁻¹
Cc1cc(Cl)ccc1OC(C)C(=O)O (centres unmarked) [Mecoprop] | 169% | 
C[C@@H](Oc1ccc(Oc2nc3ccc(Cl)cc3o2)cc1)C(=O)O [R-fenoxaprop] | 2% | 
C[C@H](Oc1ccc(Cl)cc1Cl)C(=O)O [S-dichlorprop] | 233% | 
CC(Oc1nc(F)c(Cl)c(N)c1Cl)C(=O)O (stereo not drawn) [alpha methyl floroxypyr] | 43% | 
CC(Oc1ccc(C(=O)c2ccc(Cl)cc2)cc1)C(=O)O (centres unmarked) [compound 8563] | 64% | 
CC(Oc1ncc(Cl)cc1Cl)C(=O)O (centres unmarked) [compound 66357] | 24% | 
CC(Oc1ccc(C(=O)c2ccccc2)cc1)C(=O)O (centres unmarked) [compound 66732] | >100% | 
CC(Oc1ccc(F)cc1Cl)C(=O)O (centres unmarked) [compound 83293] | 106% | 
CC(Oc1nc(F)c(Cl)cc1Cl)C(=O)O (centres unmarked) [compound 91767] | 88% | 
O=C(O)COCc1ccccc1 [compound 93116] | 128% | 
O=C(O)COc1nc(F)c(Cl)cc1Cl [compound 93833] | 33% | 
CC(OCc1ccccc1)C(=O)O (centres unmarked) [compound 118942] | 46% | 
O=C(O)COc1ccc(F)cc1Cl [compound 124988] | 44% | 
O=C(O)/C=C/c1ccccc1Cl [compound 187507] | 10% | 
CCCC(Oc1cc(Cl)c(Cl)cc1Cl)C(=O)O (centres unmarked) [compound 188495] | 19% | 

SMILES | % of 24D activity (AAD-13 (v2); [3]) | also measured
CCCCOC(C)C(=O)O (centres unmarked) [compound 191716] | 66% | 
O=C(O)COc1ccc(C(=O)c2ccccc2)cc1 [compound 193908] | 56% | 
O=C(O)c1cc2cc(Br)cc(Br)c2o1 [compound 198167] | Not Detected | 
O=C(O)COc1ccc(Cl)c2cccnc12 [compound 204558] |  | % of 24D activity (AAD-13 (v2); [4]): Not Detected
O=C(O)c1cc2cc([N+](=O)[O-])ccc2o1 [compound 238166] |  | % of 24D activity (AAD-13 (v2); [4]): Not Detected
O=C(O)COC(c1ccccc1)C(F)(F)F (centres unmarked) [compound 470901] | 30% | 
O=C(O)COCc1ccc(Cl)cc1 [compound 475726] | 112% | 
C=C(C)CCOCC(=O)O [compound 571320] | 39% | 
CC(Oc1nn(-c2ccccc2)c(-c2ccccc2)c1Cl)C(=O)O (centres unmarked) [compound 657338] | 5% | 
CC(Oc1nn(-c2ccccc2)c(-c2ccccc2)c1Br)C(=O)O (centres unmarked) [compound 657339] | 5% | 
O=C(O)COc1ccc(C(=O)c2ccc(Cl)cc2)c(Cl)c1Cl [compound 761310] |  | % of 24D activity (AAD-13 (v2); [4]): Not Detected
O=C(O)c1cc2cc(Cl)cc(Cl)c2o1 [compound 11077344] |  | % of 24D activity (AAD-13 (v2); [4]): Not Detected
O=C(O)c1cc2cc(Cl)ccc2o1 [compound 11077347] |  | % of 24D activity (AAD-13 (v2); [4]): Not Detected
CC(Oc1ccc(Cl)c(N)c1Cl)C(=O)O (centres unmarked) [compound 11113675] | 113% | 
O=C(O)COc1cc(N2C(=O)C3=C(CCCC3)C2=O)c(F)cc1Cl [compound 11213586] | 2% | 
O=C(O)/C=C\c1ccccc1Cl [compound 11453845] | 13% | 
CC(Oc1ccc(Oc2ccc(Cl)cc2Cl)cc1)C(=O)O (centres unmarked) [diclofop] | >100% | 
CC(Oc1ccc(Oc2ccc(C(F)(F)F)cn2)cc1)C(=O)O (centres unmarked) [fluazifiop] | ~50% | 
CC(Oc1ccc(Cl)cc1Cl)C(=O)O (centres unmarked) [r,s dichlorprop, dichlorprop] | 195% | 
